Common to all, as to assay: NCI tumour cell line growth inhibition, 48 h
Test [1] deals with SF-268 CNS.
In test [2] the test system is T-47D breast.
Test [3] concerns NCI-H460 lung.
Test [4] relates to EKVX NSCLC.
The subject of test [5] is HS 578T breast.
The subject of test [6] is M14 melanoma.
Test [7] concerns OVCAR-5 ovarian.
In test [8] the test system is SK-OV-3 ovarian.
The test system of test [9] is SF-539 CNS.
Test [10] deals with UO-31 renal.
Test [11] concerns 786-0 renal.

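The compound was tested at five concentrations on cells cultured in 96-well plates, with a 48-hour exposure period. TGI denotes the concentration required for complete inhibition of growth.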

As for `CC(=O)O[C@H]1C(=O)[C@@]2(C)[C@H]([C@H](OC(=O)c3ccco3)[C@]3(O)C[C@H](OC(=O)[C@H](O)[C@@H](NC(=O)c4ccccc4)c4ccccc4)C(C)=C1C3(C)C)[C@]1(OC(C)=O)CO[C@@H]1C[C@@H]2O`, the TGI was greater than 25 µM in [1]; greater than 25 µM in test [2]; greater than 13 µM in test [3]; greater than 25 µM in test [4]; greater than 8.33 µM in [5]; greater than 25 µM in [6]. For the same compound, the TGI was greater than 25 µM in [7]; 10 µM in test [8]; 0.371 µM in [9]; greater than 25 µM in test [10]; greater than 25 µM in test [11].

`O=C1C=C/C(=C/[C@H]2SSC=C[C@]23C=CC(=O)C3)C1`: the TGI is greater than 85.2 µM in test [1]; greater than 100 µM in test [2]; greater than 94.3 µM in [3]; 63.6 µM in test [4]; 93.2 µM in test [5]; greater than 54.7 µM in [6]. In addition, the TGI in test [7] was 28.4 µM; in test [8], greater than 100 µM; in test [9], 61.3 µM; in [10] it was 32.5 µM; in test [11], 28.7 µM.

Regarding `C/C(Nc1ccc(Cl)cc1)=C1/CCOC1=O`, the TGI in test [1], in [2], in test [3], in test [4], in [5] and in [6] was greater than 100 µM in each case. Moreover, the TGI in test [7], in test [8], in [9], in test [10] and in test [11] was greater than 100 µM each time.

Turning to `Cc1cc(C)nc(NS(=O)(=O)c2ccc(Nc3c4ccccc4nc4ccc(C(=O)Nc5ccc(S(=O)(=O)N=C(N)N)cc5)cc34)cc2)n1`, the TGI in test [1], in [2], in [3], in [4], in [5] and in test [6] was greater than 100 µM each time. Further, the TGI in test [7] was greater than 100 µM; in [8], greater than 100 µM; in test [9], greater than 100 µM; in [10], greater than 100 µM; in [11] it was 53 µM.

As for `Cc1ccccc1Nc1nc2ccccc2nc1NS(=O)(=O)c1ccccc1`, the TGI in [1], in test [2], in test [3], in test [4], in test [5] and in test [6] was greater than 100 µM each time. Further, the TGI in test [7], in [8], in [9], in [10] and in [11] was greater than 100 µM each time.

Regarding `O=C(O)CCC1NC(/C(=C/c2ccccc2O)NC(=O)c2ccccc2)OC1=O` (configuration not stated), the TGI in [1], in [2], in [3], in test [4], in [5] and in [6] was greater than 100 µM throughout. The TGI in test [7] was greater than 100 µM; in test [8], greater than 100 µM; in [9], greater than 100 µM; in test [10] it was 45.8 µM; in [11], greater than 100 µM.

With `C#CCOC(=O)C(=[N+]=[N-])C(=O)CC(C)C`, the TGI in test [1], in test [2], in test [3], in test [4], in test [5] and in test [6] was greater than 10 µM in each case. Further, the TGI in test [7], in test [8], in test [9], in test [10] and in test [11] was greater than 10 µM in each case.

With `CC(=O)NN(c1ccccc1)C1CCN(c2ccccc2)N1C(C)=O` (configuration not stated), the TGI in [1], in test [2], in test [3], in test [4], in test [5] and in test [6] was greater than 10 µM in each case. Further, the TGI in [7], in [8], in [9], in [10] and in test [11] was greater than 10 µM throughout.

With `COc1ccc(N=Nc2c(N)nn3c(SC)c(C#N)c(N)nc23)cc1`, the TGI in test [1] was determined as 11.4 µM; in test [2] it was 4.3 µM; in [3], 34.7 µM; in [4], 21.3 µM; in [5], 6.91 µM; in test [6] it was 25.1 µM. In addition, the TGI was determined as 34.8 µM in test [7]; 38.8 µM in [8]; 34.6 µM in test [9]; 25.4 µM in test [10]; 14.2 µM in [11].

In the case of `CN(C)C(=O)Oc1ccc(C(=S)Nc2ccccc2)cc1`, the TGI in [1], in [2], in [3], in test [4], in test [5] and in test [6] was greater than 100 µM throughout. In addition, the TGI in test [7], in test [8], in [9], in test [10] and in [11] was greater than 100 µM in each case.

Turning to `CCOC(=O)c1cn(CC)c2ccc3c(c2c1=O)S(=O)(=O)C=C3`, the TGI in [1], in [2], in test [3], in test [4], in test [5] and in [6] was greater than 100 µM throughout. Besides, the TGI in [7], in test [8], in test [9], in test [10] and in test [11] was greater than 100 µM each time.

As to `CCOC(=O)c1cc2c3c(cc(OC)c2[nH]1)N(C(=O)OCC)CC3`, the TGI in test [1], in test [2], in test [3], in test [4], in test [5] and in test [6] was greater than 100 µM throughout. In addition, the TGI in test [7], in test [8], in test [9], in test [10] and in test [11] was greater than 100 µM throughout.

Values taken from PubChem BioAssay (NCI).
